Results reported in patent US20260008760A1, “DIPEPTIDYL PEPTIDASE 1 INHIBITORS AND USES THEREOF” (Insmed Incorporated, priority 2024, published 2026).

Columns and labels:
human DPP1 enzyme = human DPP1 enzyme (Homo sapiens, UniProt P53634); assay: Human DPP1 Enzyme Single-Point Percent Inhibition Testing (HL-60 lysate); type: biochemical; set-up: A crude lysate of HL-60 cells (ATCC; Manassas, VA) was used as a source of human DPP1 enzyme; host or cells: HL-60 cells (crude lysate); details: final compound concentration of 10 nM, 400 μM H-Gly-Arg-AMC, n = 1
Sequence of human DPP1 enzyme (P53634 25-463): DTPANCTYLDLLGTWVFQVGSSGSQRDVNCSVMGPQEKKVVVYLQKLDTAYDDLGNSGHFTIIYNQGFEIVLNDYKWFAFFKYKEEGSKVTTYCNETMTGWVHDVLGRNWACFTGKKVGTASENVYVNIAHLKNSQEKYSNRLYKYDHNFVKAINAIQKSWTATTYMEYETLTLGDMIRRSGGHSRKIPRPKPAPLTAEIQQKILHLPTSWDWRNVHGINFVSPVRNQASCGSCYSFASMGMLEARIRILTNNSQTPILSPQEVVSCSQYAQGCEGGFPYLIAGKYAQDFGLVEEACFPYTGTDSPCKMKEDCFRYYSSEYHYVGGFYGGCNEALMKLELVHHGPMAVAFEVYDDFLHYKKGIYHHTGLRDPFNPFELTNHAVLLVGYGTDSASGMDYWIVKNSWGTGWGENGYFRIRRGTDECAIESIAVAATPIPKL
Procedure: Example 98. Human DPP1 Enzyme Single-Point Percent Inhibition Testing
A crude lysate of HL-60 cells (ATCC; Manassas, VA) was used as a source of human DPP1 enzyme in the assay. Lysate was prepared in 1% Triton X-100 in PBS at a concentration of 20,000 live cells per μL of lysis buffer and was centrifuged at 16,000 rcf for 10 minutes at 4° C., after which supernatant was collected and flash-frozen in liquid nitrogen. Test articles were applied to human DPP1 enzyme in Assay Buffer (25 mM MES pH 6.0, 50 mM NaCl, 5 mM DTT) in a total reaction volume of 125 μL. 25 μL of compound diluted to 50 nM in Assay Buffer plus 5% DMSO was first added to 50 μL of HL-60 lysate diluted to contain a DPP1 enzyme concentration of roughly 1 ng/μL and allowed to pre-incubate for 10 minutes at 37° C. after which 50 μL of 1000 μM H-Gly-Arg-AMC substrate (Bachem; St. Torrance, CA) was added, giving final compound concentration of 10 nM, a final substrate concentration of 400 μM and a final DMSO concentration of 1%. Substrate cleavage was measured for 90 minutes at 37° C., with fluorescence at Excitation/Emission 350/450 nm measured every 5 minutes. DPP1 concentration was interpolated based on its activity relative to a standard curve of activated human recombinant DPP1 enzyme. Percent inhibition at 10 nM was calculated for each test article based on remaining DPP1 activity compared to enzyme activity in wells that received only vehicle control.

DPP1 in HL-60 cells = DPP1 in HL-60 cells (Homo sapiens, UniProt P53634); assay: DPP1 Cell Single-Point Percent Inhibition Testing; type: cell-based; set-up: host or cells: HL-60 cells; details: final compound concentration 5 nM, n = 1
Sequence of DPP1 in HL-60 cells (P53634 25-463): as above
Procedure: Example 100. DPP1 Cell Single-Point Percent Inhibition Testing
HL-60 cells (ATCC; Manassas, VA) were maintained in RPMI-1640 supplemented with 20% heat-inactivated FBS and 1× Antibiotic Antimycotic (Cytiva; Marlborough, MA). Media was changed every three to four days and cells were not allowed to exceed 1×10^6 cells per mL. Prior to assay, cells were collected by centrifugation at 500 rcf for 3 minutes, resuspended in RPMI (with no additional supplements) and counted. Cells were diluted in RPMI to a concentration of 5×10^5 live cells per mL and transferred to black 96-well plates for assay, 60 μL per well. Test articles were diluted to 25 nM in RPMI plus 0.5% DMSO, and 20 μL was added to each assay well. Compound was allowed to pre-incubate with cells with gentle shaking at 100 rpm for 60 minutes at 37° C. in a cell culture incubator maintained at 5% CO2, after which 20 μL of 500 μM H-Gly-Phe-AFC cell-permeable substrate (MP Biomedicals; Solon, OH) in RPMI was added to each well, giving final compound concentration of 5 nM, a final substrate concentration of 100 μM and a final DMSO concentration of 0.1%. Plates were returned to the incubator with shaking at 100 rpm for 30 minutes, after which fluorescence was measured at Excitation/Emission 400/505 nm. Percent Inhibition was calculated from RFU values by first subtracting background values (wells in which RPMI was substituted for cells) from each well, and then subtracting background-subtracted RFU derived from wells that received a final concentration of 10 μM brensocatib. This value represents the non-specific substrate cleavage from the HL-60 cells, and the remaining RFU should theoretically be solely the contribution of DPP1 enzyme activity. The final percent inhibition value was calculated for each test article based on remaining RFU compared to RFU from wells that received only vehicle control.

SMILES | inhibition at 0.01 µM (human DPP1 enzyme) [%] | inhibition at 0.005 µM (DPP1 in HL-60 cells) [%]
CN1CCCC2(C1)C(=O)N(C)c1ccc(-c3ccc(C[C@@H](C#N)NC(=O)[C@@H]4CNCCCCO4)cc3)cc12 (some centres unmarked) [Compound 36] | ≤ 40 | ≤ 76.5
CN1CC2(C1)OC(=O)c1ccc(-c3ccc(C[C@@H](C#N)NC(=O)[C@@H]4CNCCCCO4)cc3)cc12 [Compound 37] | ≤ 40 | ≤ 76.5
CN1CCC2(C1)OC(=O)c1ccc(-c3ccc(C[C@@H](C#N)NC(=O)[C@@H]4CNCCCCO4)cc3)cc12 (some centres unmarked) [Compound 38] | ≤ 40 | ≤ 76.5
N#C[C@H](Cc1ccc(-c2ccc3c(c2)C2(CCN(C4COC4)CC2)OC3)cc1)NC(=O)[C@@H]1CNCCCCO1 [Compound 39] | ≤ 40 | ≤ 76.5
CN1CCN(Cc2ccc(-c3ccc(C[C@@H](C#N)NC(=O)[C@@H]4CNCCCCO4)cc3)cc2)CC1 [Compound 40] | ≤ 40 | ≤ 76.5
CN1CCCC2(C1)C(=O)N(C)c1ccc(-c3ccc(C[C@@H](C#N)NC(=O)[C@@H]4CNCCCCO4)c(F)c3)cc12 (some centres unmarked) [Compound 41] | 40 to 66.7 | ≤ 76.5
CN1CC2(C1)OC(=O)c1ccc(-c3ccc(C[C@@H](C#N)NC(=O)[C@@H]4CNCCCCO4)c(F)c3)cc12 [Compound 42] | 40 to 66.7 | ≤ 76.5
CN1CCC2(C1)OC(=O)c1ccc(-c3ccc(C[C@@H](C#N)NC(=O)[C@@H]4CNCCCCO4)c(F)c3)cc12 (some centres unmarked) [Compound 43] | 40 to 66.7 | ≤ 76.5
N#C[C@H](Cc1ccc(-c2ccc3c(c2)C2(CCN(C4CCC4)CC2)OC3)cc1F)NC(=O)[C@@H]1CNCCCCO1 [Compound 44] | 40 to 66.7 | ≤ 76.5
CN1CCN(Cc2ccc(-c3ccc(C[C@@H](C#N)NC(=O)[C@@H]4CNCCCCO4)c(F)c3)cc2)CC1 [Compound 45] | ≤ 40 | ≤ 76.5
N#C[C@H](Cc1ccc(-c2ccc(S(=O)(=O)N3CCC3)cc2)cc1)NC(=O)[C@@H]1CNCCCCO1 [Compound 46] | ≤ 40 | ≤ 76.5
N#C[C@H](Cc1ccc(-c2ccc(S(=O)(=O)N3CCC3)cc2)cc1F)NC(=O)[C@@H]1CNCCCCO1 [Compound 47] | ≤ 40 | ≤ 76.5
CN1CCCC2(C1)C(=O)N(C)c1ccc(-c3ccc(C[C@@H](C#N)NC(=O)[C@@H]4CNCCCO4)c(F)c3)cc12 (some centres unmarked) [Compound 48] | 40 to 66.7 | ≤ 76.5
N#C[C@H](Cc1ccc(-c2ccc(S(=O)(=O)N3CCC3)cc2)cc1F)NC(=O)[C@@H]1CNCCCO1 [Compound 49] | ≤ 40 | ≤ 76.5
CO[C@@H]1CCNC[C@@H](C(=O)N[C@H](C#N)Cc2ccc(-c3cc4c(C)nc(C)cn4c3)cc2)OC1 [Compound A80] | ≥ 66.7 | 76.5 to 93.9
CO[C@@H]1CCNC[C@@H](C(=O)N[C@H](C#N)Cc2ccc(-c3ccc4c(n3)CCCN4)cc2)OC1 [Compound A81] | 40 to 66.7 | ≤ 76.5
CO[C@@H]1CCNC[C@@H](C(=O)N[C@H](C#N)Cc2ccc(-c3cc4c(C)nc(C)cn4c3)cc2F)OC1 [Compound A82] | ≥ 66.7 | 76.5 to 93.9

SMILES | inhibition at 0.01 µM (human DPP1 enzyme) [%] | inhibition at 0.005 µM (DPP1 in HL-60 cells) [%]
CO[C@@H]1CCNC[C@@H](C(=O)N[C@H](C#N)Cc2ccc(-c3ccc4c(n3)CCCN4)cc2F)OC1 [Compound A83] | ≥ 66.7 | 76.5 to 93.9
CO[C@@H]1CCNC[C@@H](C(=O)N[C@H](C#N)Cc2ccc(-c3cnc4c(n3)CCCC4)cc2)OC1 [Compound A84] | 40 to 66.7 | ≤ 76.5
CO[C@@H]1CCNC[C@@H](C(=O)N[C@H](C#N)Cc2ccc(-c3cnc4c(n3)CCCC4)cc2F)OC1 [Compound A85] | ≥ 66.7 | ≤ 76.5
COC1CNC[C@@H](C(=O)N[C@H](C#N)Cc2ccc(-c3cc4c(C)nc(C)cn4c3)cc2)OC1 (some centres unmarked) [Compound A86] | 40 to 66.7 | ≤ 76.5
COC1CNC[C@@H](C(=O)N[C@H](C#N)Cc2ccc(-c3ccc4c(n3)CCCN4)cc2)OC1 (some centres unmarked) [Compound A87] | ≥ 66.7 | 76.5 to 93.9
COC1CNC[C@@H](C(=O)N[C@H](C#N)Cc2ccc(-c3cnc4c(n3)CCCC4)cc2)OC1 (some centres unmarked) [Compound A90] | ≥ 66.7 | ≤ 76.5
COC1CNC[C@@H](C(=O)N[C@H](C#N)Cc2ccc(-c3cnc4c(n3)CCCC4)cc2F)OC1 (some centres unmarked) [Compound A91] | ≥ 66.7 | ≤ 76.5
CO[C@H]1CCO[C@H](C(=O)N[C@H](C#N)Cc2ccc(-c3ccc4c(n3)CCCN4)cc2)CNC1 [Compound A93] | ≤ 40 | ≤ 76.5
CO[C@H]1CCO[C@H](C(=O)N[C@H](C#N)Cc2ccc(-c3cc4c(C)nc(C)cn4c3)cc2F)CNC1 [Compound A94] | ≤ 40 | ≤ 76.5
CO[C@H]1CCO[C@H](C(=O)N[C@H](C#N)Cc2ccc(-c3ccc4c(n3)CCCN4)cc2F)CNC1 [Compound A95] | 40 to 66.7 | ≤ 76.5
CO[C@H]1CCO[C@H](C(=O)N[C@H](C#N)Cc2ccc(-c3cnc4c(n3)CCCC4)cc2)CNC1 [Compound A96] | 40 to 66.7 | ≤ 76.5
CO[C@H]1CCO[C@H](C(=O)N[C@H](C#N)Cc2ccc(-c3cnc4c(n3)CCCC4)cc2F)CNC1 [Compound A97] | 40 to 66.7 | ≤ 76.5
Cc1cn2cc(-c3ccc(C[C@@H](C#N)NC(=O)[C@@H]4CN[C@@H](C)[C@H](O)CO4)cc3)cc2c(C)n1 [Compound A98] | ≥ 66.7 | ≤ 76.5
C[C@@H]1NC[C@@H](C(=O)N[C@H](C#N)Cc2ccc(-c3ccc4c(n3)CCCN4)cc2F)OC[C@H]1O [Compound A101] | ≥ 66.7 | 76.5 to 93.9
Cc1cn2cc(-c3ccc(C[C@@H](C#N)NC(=O)[C@@H]4CN[C@@H](C)[C@@H](O)CO4)cc3)cc2c(C)n1 [Compound A104] | ≤ 40 | ≤ 76.5
Cc1cn2cc(-c3ccc(C[C@@H](C#N)NC(=O)[C@@H]4CN[C@@H](C)[C@@H](O)CO4)c(F)c3)cc2c(C)n1 [Compound A106] | ≤ 40 | ≤ 76.5
C[C@@H]1NC[C@@H](C(=O)N[C@H](C#N)Cc2ccc(-c3ccc4c(n3)CCCN4)cc2F)OC[C@@H]1O [Compound A107] | ≤ 40 | ≤ 76.5
